Activity calls are given as the source filed them. Rule as the data show it, for most assays here: actives have a measured EC50 and inactives only a lower limit.
Key:
Large T antigen = Large T antigen (Simian virus 40, UniProt P03070); assay type: functional, Betapolyomavirus macacae;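 also: Confirmatory-stage PubChem screen for compounds that inhibit SV40 T antigen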
[1] = molecular target: T1, Rac GTPase-activating protein 1 (Homo sapiens, UniProt Q9H0H5); assay: blockers of MgcRacGAP-driven Rac1 GTP hydrolysis – biochemical, ADP Hunter fluorescence, primary and confirmatory, confirmation (AID 624330); assay type: functional
T1 sequence (Q9H0H5 whole entry): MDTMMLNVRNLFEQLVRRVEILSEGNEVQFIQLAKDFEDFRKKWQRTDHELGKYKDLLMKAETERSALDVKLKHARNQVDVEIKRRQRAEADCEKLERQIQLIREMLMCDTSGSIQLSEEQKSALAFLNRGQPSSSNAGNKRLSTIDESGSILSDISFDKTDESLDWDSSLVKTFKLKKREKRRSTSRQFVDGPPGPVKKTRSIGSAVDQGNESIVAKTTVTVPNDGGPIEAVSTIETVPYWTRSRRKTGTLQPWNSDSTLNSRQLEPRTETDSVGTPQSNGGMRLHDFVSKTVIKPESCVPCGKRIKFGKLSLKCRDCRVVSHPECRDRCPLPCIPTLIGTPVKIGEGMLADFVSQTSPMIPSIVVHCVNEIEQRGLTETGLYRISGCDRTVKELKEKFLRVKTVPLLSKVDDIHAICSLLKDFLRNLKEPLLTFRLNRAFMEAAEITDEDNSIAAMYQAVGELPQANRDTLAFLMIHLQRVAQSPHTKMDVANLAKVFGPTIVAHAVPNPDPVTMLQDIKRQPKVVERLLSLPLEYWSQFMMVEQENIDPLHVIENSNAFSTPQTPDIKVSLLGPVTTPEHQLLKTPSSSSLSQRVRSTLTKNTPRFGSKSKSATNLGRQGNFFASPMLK

[2] = molecular target: T2, RNA-binding protein pos-1 (Caenorhabditis elegans, UniProt G5EF15); assay: disruptors of C. elegans POS-1 RNA interaction – biochemical, fluorescence polarization, dose response (AID 1964);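 also: purified POS-1 fused to maltose binding protein made in E. coli; potency of compounds blocking POS-1 binding to fluorescent RNA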
T2 sequence (G5EF15 whole entry): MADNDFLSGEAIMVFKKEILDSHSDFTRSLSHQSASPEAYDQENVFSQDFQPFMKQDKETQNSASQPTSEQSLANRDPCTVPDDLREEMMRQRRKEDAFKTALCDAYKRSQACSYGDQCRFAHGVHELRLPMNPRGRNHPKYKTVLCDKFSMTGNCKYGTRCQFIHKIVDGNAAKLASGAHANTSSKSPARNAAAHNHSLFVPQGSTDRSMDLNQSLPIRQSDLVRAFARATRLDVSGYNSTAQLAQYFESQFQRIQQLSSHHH

[3] = molecular target: T3, Zinc finger protein mex-5 (Caenorhabditis elegans, UniProt Q9XUB2); assay: potency of MEX-5 RNA-binding blockers – biochemical, C. elegans, fluorescence polarization, dose response (AID 1960)
T3 sequence (Q9XUB2 whole entry): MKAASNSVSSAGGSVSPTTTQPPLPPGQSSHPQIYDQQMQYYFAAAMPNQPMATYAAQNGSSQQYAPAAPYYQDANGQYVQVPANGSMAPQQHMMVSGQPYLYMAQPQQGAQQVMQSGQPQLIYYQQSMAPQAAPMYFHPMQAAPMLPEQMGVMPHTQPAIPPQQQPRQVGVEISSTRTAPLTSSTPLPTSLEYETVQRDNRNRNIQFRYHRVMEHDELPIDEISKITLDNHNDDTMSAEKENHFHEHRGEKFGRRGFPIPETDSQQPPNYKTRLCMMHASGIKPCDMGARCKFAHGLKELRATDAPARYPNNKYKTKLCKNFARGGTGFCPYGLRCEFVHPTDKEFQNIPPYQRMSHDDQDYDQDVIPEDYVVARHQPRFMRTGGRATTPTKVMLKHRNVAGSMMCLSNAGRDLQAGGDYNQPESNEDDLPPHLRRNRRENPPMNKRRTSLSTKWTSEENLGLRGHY

[4] = molecular target: T4, Calpain-2 catalytic subunit (Sus scrofa, UniProt P43367); assay: m-calpain protease blockers, concentration series – biochemical, fluorogenic peptide substrate, dose response (AID 1420); assay type: functional
T4 sequence (P43367 whole entry): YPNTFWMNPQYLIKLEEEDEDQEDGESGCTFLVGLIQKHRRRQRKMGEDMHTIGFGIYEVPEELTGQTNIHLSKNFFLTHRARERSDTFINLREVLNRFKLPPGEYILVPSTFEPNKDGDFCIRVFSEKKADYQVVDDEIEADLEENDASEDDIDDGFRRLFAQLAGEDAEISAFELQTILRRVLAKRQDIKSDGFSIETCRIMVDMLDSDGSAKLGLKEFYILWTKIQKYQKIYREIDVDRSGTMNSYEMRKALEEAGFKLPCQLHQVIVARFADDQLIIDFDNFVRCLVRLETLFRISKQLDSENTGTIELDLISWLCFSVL

[5] = molecular target: T5, Heat shock factor protein 1 (Mus musculus, UniProt P38532); assay: enhancement of HSF1-driven luciferase signal – cell-based, NIH3T3, luminescence, dose retest, confirmation (AID 435004); assay type: functional;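 also: stress induced by proteasome inhibitor MG132 added 30 min after compound; luciferase reporter driven by HSF1 response element in NIH3T3 cells; actives raise luminescence as potentiators of the MG132 stress response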
T5 sequence (P38532 whole entry): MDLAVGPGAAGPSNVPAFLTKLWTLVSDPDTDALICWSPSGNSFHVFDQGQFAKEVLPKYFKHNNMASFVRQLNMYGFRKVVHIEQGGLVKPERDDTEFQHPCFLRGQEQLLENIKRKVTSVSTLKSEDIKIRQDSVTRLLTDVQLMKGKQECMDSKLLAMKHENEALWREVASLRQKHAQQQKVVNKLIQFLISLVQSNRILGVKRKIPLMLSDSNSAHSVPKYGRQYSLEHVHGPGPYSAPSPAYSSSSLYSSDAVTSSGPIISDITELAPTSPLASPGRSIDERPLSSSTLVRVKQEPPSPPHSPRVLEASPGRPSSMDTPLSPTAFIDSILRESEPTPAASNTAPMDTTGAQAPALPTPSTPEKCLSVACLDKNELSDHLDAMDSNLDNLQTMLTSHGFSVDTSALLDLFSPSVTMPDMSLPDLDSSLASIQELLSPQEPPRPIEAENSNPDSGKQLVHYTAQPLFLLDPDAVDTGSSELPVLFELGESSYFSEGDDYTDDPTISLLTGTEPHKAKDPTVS

BJ [6] = assay: BJ-TERT-LT-ST fibroblast viability loss – cell-based, RAS-independent, luminescence, dose response (AID 1935); assay type: functional; settings: Homo sapiens;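 also: BJ fibroblasts immortalized with TERT plus LT and ST oncogenes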
[7] = molecular target: T6, Replicative DNA helicase DnaB (Mycobacterium tuberculosis, UniProt P9WMR3); assay: DnaB intein splicing inhibitors, dose response, biochemical, cell-free fluorescence (AID 449749); assay type: functional
T6 sequence (P9WMR3 whole entry): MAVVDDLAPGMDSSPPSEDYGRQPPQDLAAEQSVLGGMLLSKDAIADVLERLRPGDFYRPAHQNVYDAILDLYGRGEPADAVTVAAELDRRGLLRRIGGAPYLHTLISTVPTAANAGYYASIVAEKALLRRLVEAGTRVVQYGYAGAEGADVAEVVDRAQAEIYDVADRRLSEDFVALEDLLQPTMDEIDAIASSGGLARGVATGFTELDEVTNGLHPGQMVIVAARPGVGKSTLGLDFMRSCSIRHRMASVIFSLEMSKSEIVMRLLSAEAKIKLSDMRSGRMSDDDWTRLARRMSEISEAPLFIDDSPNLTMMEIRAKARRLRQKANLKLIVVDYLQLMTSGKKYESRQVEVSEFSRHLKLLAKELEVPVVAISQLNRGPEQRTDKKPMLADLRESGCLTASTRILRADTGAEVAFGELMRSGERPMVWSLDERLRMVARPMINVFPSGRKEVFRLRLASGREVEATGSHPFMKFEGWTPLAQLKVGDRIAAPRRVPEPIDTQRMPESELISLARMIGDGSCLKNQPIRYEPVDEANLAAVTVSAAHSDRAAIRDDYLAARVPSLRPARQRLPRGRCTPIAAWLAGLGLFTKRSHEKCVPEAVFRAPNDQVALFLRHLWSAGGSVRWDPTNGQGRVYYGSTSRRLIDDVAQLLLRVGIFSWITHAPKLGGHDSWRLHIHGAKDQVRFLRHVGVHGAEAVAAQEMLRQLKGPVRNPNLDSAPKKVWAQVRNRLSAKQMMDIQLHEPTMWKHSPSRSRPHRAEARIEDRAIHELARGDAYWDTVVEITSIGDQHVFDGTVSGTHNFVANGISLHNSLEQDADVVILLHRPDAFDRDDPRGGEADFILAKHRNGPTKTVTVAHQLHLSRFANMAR

BJ [8] = assay: cells; assay type: functional, cell-based; settings: Homo sapiens
Protein RecA = molecular target: T7, Protein RecA (Mycobacterium tuberculosis, UniProt P9WHJ3); assay: Fluorescence Cell-Free Homogeneous Dose Retest to Identify Inhibitors of RecA-Intein Splicing Activity. [Related pubchem assays (depositor defined):AID2097, AID2223, AID489010, AID492950]; assay type: functional
T7 sequence (P9WHJ3 whole entry): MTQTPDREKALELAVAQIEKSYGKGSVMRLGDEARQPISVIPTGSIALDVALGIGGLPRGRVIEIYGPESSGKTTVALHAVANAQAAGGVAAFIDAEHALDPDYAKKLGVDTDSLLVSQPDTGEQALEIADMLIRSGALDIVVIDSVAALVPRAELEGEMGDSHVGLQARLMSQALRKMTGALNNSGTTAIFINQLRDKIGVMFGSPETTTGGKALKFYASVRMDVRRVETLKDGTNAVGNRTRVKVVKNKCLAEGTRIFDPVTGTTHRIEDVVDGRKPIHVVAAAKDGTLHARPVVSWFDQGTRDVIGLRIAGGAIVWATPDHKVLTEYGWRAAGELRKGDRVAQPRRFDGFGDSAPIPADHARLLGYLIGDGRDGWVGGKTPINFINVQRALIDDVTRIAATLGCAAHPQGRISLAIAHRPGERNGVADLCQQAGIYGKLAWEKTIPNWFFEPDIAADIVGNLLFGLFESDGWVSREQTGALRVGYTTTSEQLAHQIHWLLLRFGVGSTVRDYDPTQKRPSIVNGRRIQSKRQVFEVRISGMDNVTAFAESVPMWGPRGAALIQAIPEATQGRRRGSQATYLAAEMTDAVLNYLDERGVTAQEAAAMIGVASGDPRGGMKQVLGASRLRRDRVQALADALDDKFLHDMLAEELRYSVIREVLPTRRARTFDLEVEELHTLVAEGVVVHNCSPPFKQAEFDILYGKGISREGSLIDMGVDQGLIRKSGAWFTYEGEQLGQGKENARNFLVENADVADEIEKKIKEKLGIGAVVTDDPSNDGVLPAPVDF

[9] = DRD fibroblast viability loss – cell-based, non-viral oncogenic, luminescence, dose response (AID 1934); assay type: functional; settings: Homo sapiens
BJ [10] = assay: BJ-TERT fibroblast viability loss – cell-based, RAS-independent, luminescence, dose response (AID 1933); assay type: functional; settings: Homo sapiens

Sequence of Large T antigen (P03070 whole entry): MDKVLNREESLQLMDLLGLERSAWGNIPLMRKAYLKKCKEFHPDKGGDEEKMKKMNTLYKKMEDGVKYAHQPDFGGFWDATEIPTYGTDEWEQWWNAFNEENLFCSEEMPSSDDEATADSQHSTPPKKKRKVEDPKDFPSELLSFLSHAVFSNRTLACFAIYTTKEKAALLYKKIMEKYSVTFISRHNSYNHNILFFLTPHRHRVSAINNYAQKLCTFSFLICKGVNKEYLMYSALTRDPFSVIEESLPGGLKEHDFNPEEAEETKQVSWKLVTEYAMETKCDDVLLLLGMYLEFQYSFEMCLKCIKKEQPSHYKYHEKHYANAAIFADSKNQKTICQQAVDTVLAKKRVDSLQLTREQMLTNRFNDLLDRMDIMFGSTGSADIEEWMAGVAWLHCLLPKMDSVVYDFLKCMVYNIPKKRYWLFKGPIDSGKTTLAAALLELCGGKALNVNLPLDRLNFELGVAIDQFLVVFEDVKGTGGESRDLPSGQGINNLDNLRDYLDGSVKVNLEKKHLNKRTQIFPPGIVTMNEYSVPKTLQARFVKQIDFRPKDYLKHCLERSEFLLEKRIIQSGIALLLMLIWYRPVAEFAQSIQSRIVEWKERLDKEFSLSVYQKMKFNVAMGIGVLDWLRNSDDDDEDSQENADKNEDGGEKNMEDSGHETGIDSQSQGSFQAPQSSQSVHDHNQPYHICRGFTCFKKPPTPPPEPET

## COC(C(=O)N/N=C(\C)CC(=O)Nc1ccc(N(C)C)cc1)c1ccccc1 (stereo not drawn)
Large T antigen
  IC50: 11.1 µM (active)
[1]
  IC50: 50.3 µM (active)

## CCN1CCN(Cc2c(O)ccc3c2O/C(=C\c2ccccc2)C3=O)CC1
[2]
  EC50: 30.3 µM (active)
[3]
  EC50: 57.9 µM (active)

## NS(=O)(=O)c1cccc(NC(=O)CN2CCC(Cc3ccccc3)CC2)c1
[4]
  IC50: 25.9 µM (not active)

## Cn1nnnc1SC(C(=O)Nc1cccc(C(F)(F)F)c1)c1ccccc1 (stereo not drawn)
[4]
  IC50: 16.4 µM (active)

## COc1ccc(/C=C/c2cc(C(F)(F)F)nc(O)n2)cc1OC
[2]
  EC50: > 300 µM (not active)
[3]
  EC50: > 300 µM (not active)

## Cc1cc(C(=O)N/N=C/c2ccc(-c3cccc(Cl)c3Cl)o2)[nH]n1
[2]
  EC50: 28.3 µM (active)
[3]
  EC50: 10.2 µM (active)

## COc1ccc(NC(=O)CN2CCN(c3nc(-c4ccc(F)cc4)cs3)CC2)c(OC)c1
[4]
  IC50: 5.73 µM (not active)

## COc1cc(/C=N/NC(=O)CCc2ccccc2)ccc1O
[1]
  IC50: 28.7 µM (active)

## COc1cc(/C=C2/N=C(c3ccccc3)OC2=O)c(F)cc1OCc1ccccc1
[2]
  EC50: > 300 µM (not active)
[3]
  EC50: > 300 µM (inconclusive)

## COc1cc(CN(C)CCc2ccccn2)cc(OC)c1OC
[1]
  IC50: 101 µM (active)

## COC(=O)c1ccc(-n2c(C)cc(C(=O)COC(=O)CC3Sc4ccccc4NC3=O)c2C)cc1 (stereo not drawn)
[2]
  EC50: > 300 µM (not active)
[3]
  EC50: > 300 µM (not active)

## O=C1NC(=O)N(c2ccccc2F)C(=O)/C1=C/c1cn(CC(=O)N2CCOCC2)c2ccccc12
[2]
  EC50: > 300 µM (not active)
[3]
  EC50: > 300 µM (not active)

## O=C(CNC1CCCCCC1)Nc1ccccc1N1CCOCC1
[1]
  IC50: 177 µM (active)

## Cc1[nH]c2ccccc2c1CCN(Cc1cccnc1)C(S)=Nc1ccc(F)cc1
[4]
  IC50: > 50 µM (not active)

## CC1CCN([S+]([O-])C23CC4CC(CC(C4)C2)C3)CC1 (stereo not drawn)
[4]
  IC50: > 50 µM (not active)

## CCOc1ccc(Br)cc1S(=O)(=O)NC(=O)c1ccccc1
[2]
  EC50: > 300 µM (not active)
[3]
  EC50: > 300 µM (not active)

## Oc1ccc(-c2csc(Nc3ccccn3)n2)cc1
[1]
  IC50: 65.8 µM (active)

## CC1(O)C(=O)C=C2C=C(C3CC3)OC=C2C1=O (stereo not drawn)
[2]
  EC50: 41.3 µM (active)
[3]
  EC50: 17.8 µM (active)

## ClC(Cl)(Cl)c1nc2ccccc2n2nncc12
[5]
  EC50: 5.46 µM (active)
BJ [6]
  EC50: 18.7 µM (active)
[7]
  AC50: 39.3 µM (active)
BJ [8]
  EC50: 13.7 µM (active)
Protein RecA
  EC50: 6.03 µM (active)
[9]
  EC50: 13.1 µM (active)
BJ [10]
  EC50: 6.96 µM (inconclusive)

## Cc1ccc(C(=O)c2cc([N+](=O)[O-])ccc2N2CCN(C)CC2)cc1
BJ [6]
  EC50: 13.5 µM (inconclusive)
BJ [8]
  EC50: 21.1 µM (inconclusive)
[9]
  EC50: 15.8 µM (inconclusive)
BJ [10]
  EC50: 12.5 µM (active)

Reference: ChEMBL document CHEMBL1201862, “PubChem BioAssay data set” (2004)
